We go through 78 compounds from the RepoRT retention time repository (doi:10.1016/j.scitotenv.2015.08.078).

Structures are written as SMILES. Counter-ions that a name gives are not always drawn.

The nature of this data set: RP, Waters ACQUITY UPLC BEH C18, 100 × 2.1 mm, 1.7 µm, 0.3 mL/min, estimated dead time 0.73 min; A: water + 0.1% formic acid, pH 3; B: methanol + 0.1% formic acid, pH 3; gradient (min/%B) 0/10 14/90 16/90 18/10. Conditions: stereoisomer not certain.
`CON=C(Cc1cccnc1)c1ccc(Cl)cc1Cl` (single isomer, unassigned; isomer 1) [Pyrifenox ISOMER 1]: the LC retention time was 10.2 min.
Then `CC12C=CC(=O)C=C1CCC1C2CCC2(C)C(=O)CCC12` (stereo not drawn) [1.4-Androstadiene-3.17-dione (Boldione)], with 9.82 min.
Then `Nc1ccccc1O` [2-Aminophenol], with 1.44 min.
For the compound `CCNc1nc(NCC)[nH]c(=O)n1` [2-hydroxysimazine], the LC retention time was 3.33 min.
Under `Nc1ccc(Cl)c(Cl)c1` [3.4-dichloroaniline] stands 7.98 min.
Then `CC(=O)Nc1c(C)n(C)n(-c2ccccc2)c1=O` [4-Acetylamino-Antipyrine], with 3.87 min.
Turning to `Cc1c(N)c(=O)n(-c2ccccc2)n1C` [4-amino-antipyrine], the LC retention time is 2.92 min.
Then `Cc1c(NC=O)c(=O)n(-c2ccccc2)n1C` [4-formylamino-Antipyrine], with 3.78 min; and `CC1CC2C(C(O)CC3(C)C2CCC3(O)C(=O)CO)C2(C)C=CC(=O)C=C12` (stereo not drawn) [6a-Methylprednisolone], with 9.42 min.
Turning to `CCC(C)C1OC2(C=CC1C)CC1CC(CC=C(C)C(OC3CC(OC)C(OC4CC(OC)C(O)C(C)O4)C(C)O3)C(C)C=CC=C3COC4C(O)C(C)=CC(C(=O)O1)C34O)O2` (stereo not drawn) [Abamectin B1a], the LC retention time was 13.5 min.
Turning to `O=C(O)COC(=O)Cc1ccccc1Nc1c(Cl)cccc1Cl` [Aceclofenac], the LC retention time is 10.3 min.
Under `COP(=O)(NC(C)=O)SC` (stereo not drawn) [Acephate] stands 1.45 min; under `CC(=O)c1ccc2c(c1)N(CCCN(C)C)c1ccccc1S2` [Acepromazine], 8.97 min.
In the case of `CC(=O)Nc1ccc(O)cc1` [Acetaminophen], the LC retention time was 2.4 min.
Under `CC(=NC#N)N(C)Cc1ccc(Cl)nc1` [Acetamiprid] stands 4.99 min.
Under `CCOCN(C(=O)CCl)c1c(C)cccc1CC` [Acetochlor] stands 11.1 min.
Then `COc1cc2c(c3oc(=O)c4c(c13)CCC4=O)C1C=COC1O2` (stereo not drawn) [Aflatoxin B1], with 7.97 min.
For the compound `COc1cc2c(c3c1C1CCC(=O)C1C(=O)O3)C1CCOC1O2` (stereo not drawn) [Aflatoxin B2], the LC retention time is 7.55 min.
With `COc1cc2c(c3oc(=O)c4c(c13)CCOC4=O)C1C=COC1O2` (stereo not drawn) [Aflatoxin G1], the LC retention time is 7.15 min.
Under `COc1cc2c(c3oc(=O)c4c(c13)CCOC4=O)C1CCOC1O2` (stereo not drawn) [Aflatoxin G2] stands 6.71 min.
Then `COc1cc2c(c3oc(=O)c4c(c13)CCC4=O)C1(O)C=COC1O2` (stereo not drawn) [Aflatoxin M1], with 7.15 min; and `CCc1cccc(CC)c1N(COC)C(=O)CCl` [Alachlor], with 11.7 min; and `CCOC(=O)CCN(Cc1ccccc1)SN(C)C(=O)ON=C(C)SC` [Alanycarb], with 11.6 min.
Then `CCCS(=O)(=O)c1ccc2nc(NC(=O)OC)[nH]c2c1` [Albendazole sulfone], with 6.16 min; and `CNC(=O)ON=CC(C)(C)S(C)(=O)=O` [Aldicarb sulfone], with 4.8 min; and `CNC(=O)ON=CC(C)(C)S(C)=O` (stereo not drawn) [Aldicarb sulfoxide], with 2.54 min.
Take `CNC(=O)ON=CC(C)(C)SC` [Aldicarb]: the LC retention time is 6.2 min.
Then `C=CCC1=C(C)C(OC(=O)C2C(C=C(C)C)C2(C)C)CC1=O` (stereo not drawn) [Allethrin], with 13.1 min; and `CCNc1nc(NC(C)C)nc(SC)n1` [Ametryn], with 9.9 min; and `COc1cc(OC)nc(NC(=O)NS(=O)(=O)N(C)S(C)(=O)=O)n1` [Amidosulfuron], with 4.59 min.
Regarding `Cc1ccc(N=CN(C)C=Nc2ccc(C)cc2C)c(C)c1` [Amitraz], the LC retention time is 13.9 min.
Then `CC1(C)SC2C(NC(=O)C(N)c3ccc(O)cc3)C(=O)N2C1C(=O)O` (stereo not drawn) [Amoxicillin], with 4.61 min; and `CC(N)Cc1ccccc1` (stereo not drawn) [Amphetamine], with 3.59 min; and `CC1(C)SC2C(NC(=O)C(N)c3ccccc3)C(=O)N2C1C(=O)O` (stereo not drawn) [Ampicillin], with 4.95 min.
As for `COc1ccc(C(O)(c2cncnc2)C2CC2)cc1` (stereo not drawn) [Ancymidol], the LC retention time was 7.72 min.
On to `CC12CCC(O)CC1=CCC1C2CCC2(C)C(O)CCC12` (stereo not drawn) [Androstenediol (AED)], for which the LC retention time was 12.9 min.
Turning to `COP(=S)(OC)SCC(=O)N(c1ccc(Cl)cc1)C(C)C` [Anilofos], the LC retention time is 11.7 min.
Then `CC(C)NCC(O)COc1ccc(CC(N)=O)cc1` (stereo not drawn) [Atenolol], with 8.74 min; and `CC(C)c1c(C(=O)Nc2ccccc2)c(-c2ccccc2)c(-c2ccc(F)cc2)n1CCC(O)CC(O)CC(=O)O` (stereo not drawn) [Atorvastatin], with 12 min; and `CCNc1nc(Cl)nc(NC(C)C)n1` [Atrazine], with 9.34 min.
With `Clc1ccc(C2(Cn3cncn3)OCCO2)c(Cl)c1` [Azaconazole], the LC retention time is 9.01 min.
Under `COP(=O)(OC)SCn1c(=O)oc2cc(Cl)cnc21` [Azamethiphos] stands 7.22 min; under `OC(CCCN1CCN(c2ccccn2)CC1)c1ccc(F)cc1` (stereo not drawn) [Azaperol], 4.96 min; under `O=C(CCCN1CCN(c2ccccn2)CC1)c1ccc(F)cc1` [Azaperone], 5.63 min.
With `CCOP(=S)(OCC)SCn1nnc2ccccc2c1=O` [Azinphos-ethyl], the LC retention time was 10.8 min.
Under `COP(=S)(OC)SCn1nnc2ccccc2c1=O` [Azinphos-methyl] stands 10.1 min; under `CCC1OC(=O)C(C)C(OC2CC(C)(OC)C(O)C(C)O2)C(C)C(OC2OC(C)CC(N(C)C)C2O)C(C)(O)CC(C)CN(C)C(C)C(O)C1(C)O` (stereo not drawn) [Azithromycin], 6.2 min; under `COC=C(C(=O)OC)c1ccccc1Oc1cc(Oc2ccccc2C#N)ncn1` [Azoxystrobin], 10.6 min.
With `CCC(=O)OCC(=O)C1(OC(=O)CC)C(C)CC2C3CCC4=CC(=O)C=CC4(C)C3(Cl)C(O)CC21C` (stereo not drawn) [Beclometasone dipropionate], the LC retention time is 12.3 min.
Under `COC(=O)C(C)N(C(=O)Cc1ccccc1)c1c(C)cccc1C` (stereo not drawn) [Benalaxyl] stands 11.7 min; under `O=C(O)Cn1c(=O)sc2cccc(Cl)c21` [Benazolin], 4.59 min.
Take `CNC(=O)Oc1cccc2c1OC(C)(C)O2` [Bendiocarb]: the LC retention time is 7.43 min.
Then `CCCCNC(=O)n1c(NC(=O)OC)nc2ccccc21` [Benomyl], with 11.6 min.
Take `CC1COc2ccccc2N1C(=O)C(Cl)Cl` (stereo not drawn) [Benoxacor]: the LC retention time is 9.47 min.
As to `COC(=O)c1ccccc1CS(=O)(=O)NC(=O)Nc1nc(OC)cc(OC)n1` [Bensulfuron methyl], the LC retention time is 9.29 min.
For the compound `CC(C)N1C(=O)c2ccccc2NS1(=O)=O` [Bentazon], the LC retention time was 3.68 min.
Then `CCON=C(OC(=O)c1ccccc1)c1c(OC)ccc(Cl)c1OC` [Benzoximate], with 12.1 min.
For the compound `CCCCOC(=O)c1ccccc1C(=O)OCc1ccccc1` [Benzyl butyl phthalate], the LC retention time is 12.4 min.
Then `COc1ccc(-c2ccccc2)cc1NNC(=O)OC(C)C` [Bifenazate], with 10.8 min; and `COC(=O)c1cc(Oc2ccc(Cl)cc2Cl)ccc1[N+](=O)[O-]` [Bifenox], with 12.2 min; and `CC(C)=CC1C(C(=O)OCc2coc(Cc3ccccc3)c2)C1(C)C` (stereo not drawn) [Bioresmethrin], with 14.2 min.
Under `CCCCC(CC)COC(=O)CCCCC(=O)OCC(CC)CCCC` (stereo not drawn) [Bis-(2-ethylhexyl) adipate] stands 15.3 min.
Under `CCCCC(CC)COC(=O)c1ccccc1C(=O)OCC(CC)CCCC` (stereo not drawn) [Bis-(2-ethylhexyl) phthalate] stands 15.3 min.
`CC(C)(C)C(O)C(Oc1ccc(-c2ccccc2)cc1)n1cncn1` (stereo not drawn) [Bitertanol]: the LC retention time is 12 min.
Take `O=C(Nc1ccccc1-c1ccc(Cl)cc1)c1cccnc1Cl` [Boscalid]: the LC retention time is 10.7 min.
Under `CCC(C)n1c(=O)[nH]c(C)c(Br)c1=O` (stereo not drawn) [Bromacil] stands 7.96 min; under `CC(C)(C)NCC(O)c1cc(Br)c(N)c(Br)c1` (stereo not drawn) [Brombuterol], 5.9 min.
On to `CN(Cc1cc(Br)cc(Br)c1N)C1CCCCC1` [Bromhexine], for which the LC retention time was 14.1 min.
Under `Clc1ccc(C2(Cn3cncn3)CC(Br)CO2)c(Cl)c1` (stereo not drawn) [Bromuconazole I] stands 10.6 min; under `CCCC1OC2CC3C4CCC5=CC(=O)C=CC5(C)C4C(O)CC3(C)C2(C(=O)CO)O1` (stereo not drawn) [Budesonide], 10.9 min; under `COc1cc(OC)c(C(=O)CCCN2CCCC2)c(OC)c1` [Buflomedil HCl], 5 min.
Then `CCCCc1c(C)nc(NCC)nc1OS(=O)(=O)N(C)C` [Bupirimate], with 11.2 min; and `CC(C)N1C(=O)N(c2ccccc2)CSC1=NC(C)(C)C` [Buprofezin], with 13.1 min.
As for `CCC(C)Nc1c([N+](=O)[O-])cc(C(C)(C)C)cc1[N+](=O)[O-]` (stereo not drawn) [Butralin], the LC retention time was 13.5 min.
Then `CCOP(=O)(SC(C)CC)SC(C)CC` (stereo not drawn) [Cadusafos], with 12.2 min.
For `CC(C)NCC(O)COc1cccc2[nH]c3ccccc3c12` (stereo not drawn) [Carazolol], the LC retention time was 6.24 min.
Then `CNC(=O)Oc1cccc2ccccc12` [Carbaryl], with 7.91 min; and `COC(=O)Nc1nc2ccccc2[nH]1` [Carbendazim], with 3.42 min.
